Test results taken from US9926326B2, “Substituted thioxanthenone autophagy inhibitors” (THE CLEVELAND CLINIC FOUNDATION, priority 2014, dated 2018).

Key:
A498 = assay: 72 h MTT assay, A498; type: cell-based; settings: Homo sapiens, A498, Renal
Description: (§1) Cells and cell culture. A498, 786-0, Achn and Caki-2 cells were obtained from ATCC (Manassas. Va.). Cells were cultured with medium supplemented with 10% FBS at 37° C. with 5% CO2 as previously described. Swords et al., Blood 2010; 115:3796.800. Human normal renal proximal tubule epithelial cells (RPTEC) were purchased from Clonetics (Walkersville, Md.) and cultured in REGM media (REGM BulletKit, Clonetics). Cell lines were authenticated by the source banks using DNA profiling techniques and were used for this study in accordance with AACR guidelines.
(§2) Quantification of drug-induced cytotoxicity. Cell viability was assessed by MIT assay. Cells were seeded into 96-well microculture plates at […] per well and allowed to attach for 24 h. Cells were then treated with ROC-325 or HCQ for 72 h. Following drug treatment, MTT was added and cell viability was quantified using a BioTek (Winooski, Vt.) microplate reader. Pro-apoptotic effects following in vitro drug exposure were quantified by propidium iodide (PI) staining and fluorescence-activated cell sorting (FACS) analysis of sub-G0/G1 DNA content as previously described and by measurement of active caspase-3 by flow cytometry using a commercial kit (BD Biosciences, San Jose, Calif.). Mahalingam et al., Clin Cancer Res 2010; 16:141-53.

A549 = assay: 72 h MTT assay, A549; type: cell-based; settings: Homo sapiens, A549, Lung
Description: as §2

CFPAC-1 = assay: 72 h MTT assay, CFPAC-1; type: cell-based; settings: Homo sapiens, CFPAC-1, Pancreas
Description: as §2

COLO-205 = assay: 72 h MTT assay, COLO-205; type: cell-based; settings: Homo sapiens, COLO-205, Colon
Description: as §2

DLD-1 = assay: 72 h MTT assay, DLD-1; type: cell-based; settings: Homo sapiens, DLD-1, Colon
Description: as §2

IGROV-1 = assay: 72 h MTT assay, IGROV-1; type: cell-based; settings: Homo sapiens, IGROV-1, Ovarian
Description: as §2

MCF-7 = assay: 72 h MTT assay, MCF-7; type: cell-based; settings: Homo sapiens, MCF7, MCF-7, Breast
Description: as §2

MiaPaCa-2 = assay: 72 h MTT assay, MiaPaCa-2; type: cell-based; settings: Homo sapiens, MIA PaCa-2, MiaPaCa-2, Pancreas
Description: as §2

NCI-H69 = assay: 72 h MTT assay, NCI-H69; type: cell-based; settings: Homo sapiens, NCI-H69, Lung
Description: as §2

PC-3 = assay: 72 h MTT assay, PC-3; type: cell-based; settings: Homo sapiens, PC-3, Prostate
Description: as §2

RL = assay: 72 h MTT assay, RL; type: cell-based; settings: Homo sapiens, NHL
Description: as §2

UACC-62 = assay: 72 h MTT assay, UACC-62; type: cell-based; settings: Homo sapiens, UACC-62, Melanoma
Description: as §2

[1] = Carew et al., J Biol Chem 2011; cited from earlier work
[2] = tested on: 12 different human cancer cell lines; assay: Direct comparison of in vitro anticancer effects in 12 cancer cell lines (MTT); type: cell-based; settings: all 12 models tested, 72 h MTT
Description: as §2

[3] = tested on: RCC cell lines (786-0, A498, Achn, and Caki-2); assay: MTT cell viability in RCC cell lines; type: cell-based, human; settings: 72 hours
Description: as §1, §2

[4] = tested on: normal renal proximal tubule endothelial cells (RPTEC); assay: MTT cell viability in normal renal cells; type: cell-based, human; settings: 72 hours
Description: as §1, §2

RCC cells [5] = assay: Apoptosis: active caspase-3 flow cytometry and PI-FACS DNA fragmentation; type: cell-based, human; settings: 48 hours
Description: as §2

786-0 RCC xenografts = assay: In vivo evaluation in 786-O RCC xenografts; set-up: species or system nude mice
Description: In vivo evaluation of ROC-325 and HCQ. 786-O renal cancer cells (5×106) were suspended in a mixture of HBSS and Matrigel and subcutaneously implanted into female nude mice (BALB/c background). Tumor-bearing animals from each cell line xenograft were randomized into treatment groups. Mice were treated with vehicle (water), ROC-325 (25, 40, and 50 mg/kg PO), or HCQ (60 mg/kg IP) QD×5 for 6 weeks. Mice were monitored daily and tumor volumes were measured twice weekly. At study completion, tumors from representative animals were excised from each group, […], and paraffin-embedded for immunohistochemical analysis.
Immunohistochemistry. Paraffin-embedded tumor sections were deparaffinized in xylene, exposed to a graded series of alcohol, and rehydrated in PBS (pH 7.5). Heat-induced epitope retrieval on paraffin-embedded sections and probing with specific antibodies was conducted as previously described. Nawrocki et al., Clin Cancer Res 2013; 19:3577-90. Positive reactions were visualized using 3,3′-diaminobenzidine (Dako, Glostrup, Denmark). Images were captured using an Olympus fluorescent microscope (Center Valley. Pa.) with a DP71 camera and a 20× objective. Image-Pro Plus software Version 6.2.1 (MediaCybernetics, Bethesda, Md.) was used for image acquisition. ImageJ software was used for quantification of LC3B and p62 levels by densitometric analysis of five random fields containing viable tumor cells. Quantification of cleaved caspase-3 was conducted by counting the number of positive cells in five random fields as previously described. Carew et al., Cancer Res 2008; 68:4783-90.

A498 and 786-O cells = assay: Giemsa staining, vacuolization; type: cell-based, human; settings: 5 μM, 24 h
Description: Giemsa staining. Cells were plated in chamber slides as previously described and treated with ROC-325 for 24 h. Carew et al., J Biol Chem 2011; 286:6602-13. Following drug treatment, cells were washed with PBS and fixed in methanol for 5 minutes. Cells were then incubated for 1 h in Giemsa stain diluted 1:20 with deionized water. Cells were rinsed with water and imaged using an Olympus fluorescent microscope. Image-Pro Plus software Version 6.2.1 was used for image acquisition.

RCC cells [6] = assay: Transmission electron microscopy; type: cell-based, human; settings: 5 μM, 24 h
Description: Transmission electron microscopy. Transmission electron microscopy of cells was performed as previously described. Carew et al., J Cell Mol Med 2010 Oct.; 14(10):2448-59. RCC cells were treated with ROC-325 for 24 h and harvested for imaging. Briefly, sections were cut in an LKB Ultracut microtome (Leica. Deerfield, Ill.), stained with uranyl acetate and lead citrate, and examined in a JEM 1230 transmission electron microscope (JEOL, USA, Inc., Peabody, Mass.). Images were captured using the AMT Imaging System (Advanced Microscopy Techniques Corp, Danvers. Mass.).

786-O and A498 cells = assay: Acridine orange staining of acidic lysosomes; type: cell-based, human; settings: 24 h
Description: Acridine orange staining. Acidic lysosomes were visualized by acridine orange staining as previously described. Carew et al., J Biol Chem 2011; 286:6602-13. After treatment with ROC-325 for 24 h, cells were stained with 1 μM acridine orange for 15 minutes at 37° C. Cells were washed with PBS and images were captured using an Olympus fluorescent microscope. Acidic lysosomes appear as orange fluorescent cytoplasmic vesicles. Quantification of 5 random fields of acridine orange intensity and image acquisition were performed using Image-Pro Plus software Version 6.2.1.

cathepsin D (CTSD) = assay: Cathepsin D expression, microarray and qRT-PCR; type: cell-based, human; settings: A498 and 786-0, 5 μM, 24 hours; confirmed by qRT-PCR
Description: Expression microarrays. RCC cells were treated with […] for 24 h. Total RNAs were isolated using the RNeasy Plus Mini Kit (Qiagen, Germantown, Md.) and treated with TURBO DNA-Free™ Kit (Applied Biosystems, Foster City, Calif.), 300 ng of total RNA per sample was amplified and hybridized to GeneChip® Human Gene 1.0 ST arrays (Affymetrix, Inc., Santa Clara, Calif.) according to the manufacturer's instructions. Affymetrix CEL files were imported into Partek® Genomics Suite™ 6.4 (Partek Inc., St. Louis. Mo.) using the default Partek normalization parameters and the robust multi-array average (RMA) analysis adjusted for probe sequence and GC content (GC-RMA). Data normalization was performed across all arrays using quantile normalization.
Quantitative real time polymerase chain reaction, cDNA from ROC-325 treated cells were used for relative quantification by RT-PCR analyses. First-strand cDNA synthesis was performed from 1 μg RNA in a 20 μl reaction mixture using the high-capacity eDNA Reverse Transcription Kit (Applied Biosystems, Foster City, Calif.). Cathepsin D (CTSD) and GAPDH transcripts were amplified using commercially available TaqMan® Gene expression assays (Applied Biosystems, Foster City, Calif.). Relative gene expression was calculated with the 2-Ct method using GAPDH as a housekeeping gene. Pfaffl M W., Nucleic Acids Res 2001; 29:e45.

LC3B = LC3B immunocytochemistry; type: cell-based, human; settings: 5 μM, 24 hours, A498 and 786-0
Description: Immunocytochemistry. Cells were plated on chamber slides and allowed to attach overnight. Cells were then treated for 24 h with ROC-325. Following drug treatment, cells were fixed with 4% paraformaldehyde, permeabilized using 0.2% triton-X-100, and incubated overnight with anti-LC3B antibody. Alexa Fluor 594 conjugated fluorescent secondary antibody was used to visualize protein localization. Dapi was utilized to stain the nucleus. Images were captured using an Olympus fluorescent microscope (Center Valley, Pa.) with a DP71 camera and a 60× objective. Image-Pro Plus software Version 6.2.1 (MediaCybernetics, Bethesda, Md.) was used for image acquisition.

LC3B, p62, cathepsin D = assay: Immunoblotting of autophagy markers and autophagic flux with bafilomycin A1; type: cell-based, human
Description: Immunoblotting. Renal cancer cells were incubated with ROC-325 for 24 h. Cells were harvested and were then lysed as previously described. Nawrocki S T, Carew J S, Maclean K H, Courage J F, Huang P, Houghton J A, Cleveland J L, Giles F J, McConkey D J. Myc regulates aggresome formation, the induction of Noxa, and apoptosis in response to the combination of bortezomib and SAHA. Blood 2008; 112:2917-26. Approximately 50 μg of total cellular protein from each sample were subjected to SDS-PAGE, proteins were transferred to nitrocellulose membranes, and the membranes were blocked with 5% nonfat milk in a Tris-buffered saline solution containing 0.1% Tween-20 for 1 h. The blots were then probed overnight at 4° C. with primary antibodies, washed, and probed with species-specific secondary antibodies coupled to horseradish peroxidase. Immunoreactive material was detected by enhanced chemiluminescence (West Pico, Pierce, Inc., […]. Ill.).

Compound	IC50 (A498)	IC50 (A549)	IC50 (CFPAC-1)	IC50 (COLO-205)	IC50 (DLD-1)	IC50 (IGROV-1)	IC50 (MCF-7)	IC50 (MiaPaCa-2)	IC50 (NCI-H69)	IC50 (PC-3)	IC50 (RL)	IC50 (UACC-62)	further results
CCN(CCO)CCCC(C)Nc1ccnc2cc(Cl)ccc12 (stereo not drawn) [HCQ, hydroxychloroquine, reference compound]	52 µM	> 75 µM	> 75 µM	51 µM	> 75 µM	> 75 µM	> 75 µM	> 75 µM	54 µM	58 µM	35 µM	> 75 µM	
CCN(CC)CCNc1ccc(C)c2sc3ccccc3c(=O)c12 [LUC, lucanthone]													anticancer activity compared to CQ [1]: approximately 10 ×
Cc1ccc(NCCN(C)CCNc2ccnc3cc(Cl)ccc23)c2c(=O)c3ccccc3sc12 [ROC-325]	4.9 µM	11 µM	4.6 µM	5.4 µM	7.4 µM	11 µM	8.2 µM	5.8 µM	5 µM	11 µM	8.4 µM	6 µM	lower IC50s than HCQ [2]: approximately 10 fold; more effective at diminishing RCC cell viability than HCQ [3]: approximately 10 fold; cell viability of normal renal cells [4]: marginal reduction in cell viability; percentages of cells with active caspase-3 expression (RCC cells [5]): dose-dependent increases; percentages of cells with fragmented DNA (RCC cells [5]; PI-FACS): dose-dependent increases; tolerability (786-0 RCC xenografts; 25, 40, or 50 mg/kg PO, nude mice): well tolerated; disease progression (tumor volume) (786-0 RCC xenografts; 25, 40, or 50 mg/kg QD PO, 786-0 xenografts in nude mice): significant, dose-dependent inhibition of disease progression; LC3B in tumors (immunohistochemistry) (786-0 RCC xenografts; 786-0 xenograft specimens): significant, dose-dependent increases; apoptosis in tumors (cleaved caspase-3 immunohistochemistry) (786-0 RCC xenografts; 786-0 xenograft specimens): increased apoptosis; p62 in tumors (immunohistochemistry) (786-0 RCC xenografts; 786-0 xenograft specimens): significant, dose-dependent increases; mean body weight (786-0 RCC xenografts; highest dose, end of study (Day 46)): very modest, non-significant reduction; oral bioavailability (786-0 RCC xenografts; mice, PO): orally bioavailable; cytosolic vacuolization (A498 and 786-O cells): induced cytosolic vacuolization; autophagosomes (RCC cells [6]): promoted the accumulation of autophagosomes; acridine orange fluorescence (lysosomal membrane permeability) (786-O and A498 cells): significant loss of acridine orange fluorescence; CTSD levels (cathepsin D (CTSD)): highly significant increase; LC3B distribution and levels (LC3B): formation of LC3B punctae and a robust increase in LC3B levels; autophagic flux (LC3B, p62, cathepsin D; 786-0, alone and combined with bafilomycin A1): effectively inhibited autophagic flux; LC3B expression (immunoblotting) (LC3B, p62, cathepsin D; A498 and 786-0, 24 h): dose-dependent increase; levels of p62 and cathepsin D (immunoblotting) (LC3B, p62, cathepsin D; A498 and 786-0, 24 h): corresponding increase
